# Laboratory results from article PMC6458995, “MAP4K4 Inhibition Promotes Survival of Human Stem Cell-Derived Cardiomyocytes and Reduces Infarct Size In Vivo” (Cell Stem Cell, 2019).
# Columns and labels:
# Assay in all cases: Dundee kinase panel
# Assay type in all cases: biochemical
# Conditions in all cases: for remaining activity at 1 µM: read-out: residual activity
# [1] = molecular target: T1, MKK1 (Homo sapiens, UniProt Q02750)
# T1 construct: lines 1-140) and Reaction Biology
# Method: (§1) Compounds were screened at 1 μM. For key hits, pIC50 values were then determined by HTRF as above. […] Stability in mouse and human liver microsomes was determined by Cyprotex.
# [2] = molecular target: T2, PAK4 (Homo sapiens, UniProt O96013)
# T2 construct: lines 1-140) and Reaction Biology
# Method: as §1
# [3] = molecular target: T3, HIPK1 (Homo sapiens, UniProt Q86Z02)
# T3 construct: lines 1-140) and Reaction Biology
# Method: as §1
# [4] = molecular target: T4, MST4 (Homo sapiens, UniProt Q9P289)
# T4 construct: lines 1-140) and Reaction Biology
# Method: as §1
# [5] = molecular target: T5, YES1 (Homo sapiens, UniProt P07947)
# T5 construct: lines 1-140) and Reaction Biology
# Method: as §1
# [6] = molecular target: T6, ROCK 2 (Homo sapiens, UniProt O75116)
# T6 construct: lines 1-140) and Reaction Biology
# Method: as §1
# [7] = molecular target: T7, PRAK (Homo sapiens, UniProt Q8IW41)
# T7 construct: lines 1-140) and Reaction Biology
# T7 sequence (Q8IW41 1-473): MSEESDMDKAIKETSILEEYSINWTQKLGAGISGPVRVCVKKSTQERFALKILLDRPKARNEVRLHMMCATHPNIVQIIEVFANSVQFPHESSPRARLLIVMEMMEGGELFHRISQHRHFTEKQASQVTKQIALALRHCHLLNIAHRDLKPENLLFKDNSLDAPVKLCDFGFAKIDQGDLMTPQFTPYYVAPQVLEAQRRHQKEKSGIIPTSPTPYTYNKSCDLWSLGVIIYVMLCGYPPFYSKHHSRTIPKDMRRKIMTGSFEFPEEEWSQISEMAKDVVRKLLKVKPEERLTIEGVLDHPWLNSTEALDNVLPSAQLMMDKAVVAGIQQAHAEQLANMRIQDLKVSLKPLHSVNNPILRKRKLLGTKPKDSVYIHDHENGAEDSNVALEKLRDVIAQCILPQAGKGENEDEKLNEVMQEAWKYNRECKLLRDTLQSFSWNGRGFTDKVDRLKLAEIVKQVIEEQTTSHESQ
# Method: as §1
# [8] = molecular target: T8, JNK1 (Homo sapiens, UniProt P45983)
# T8 construct: lines 1-140) and Reaction Biology
# Method: as §1
# [9] = molecular target: T9, Aurora B (Homo sapiens, UniProt Q96GD4)
# T9 construct: lines 1-140) and Reaction Biology
# Method: as §1
# [10] = molecular target: T10, TTK (Homo sapiens, UniProt P33981)
# T10 construct: lines 1-140) and Reaction Biology
# T10 sequence (P33981 1-857): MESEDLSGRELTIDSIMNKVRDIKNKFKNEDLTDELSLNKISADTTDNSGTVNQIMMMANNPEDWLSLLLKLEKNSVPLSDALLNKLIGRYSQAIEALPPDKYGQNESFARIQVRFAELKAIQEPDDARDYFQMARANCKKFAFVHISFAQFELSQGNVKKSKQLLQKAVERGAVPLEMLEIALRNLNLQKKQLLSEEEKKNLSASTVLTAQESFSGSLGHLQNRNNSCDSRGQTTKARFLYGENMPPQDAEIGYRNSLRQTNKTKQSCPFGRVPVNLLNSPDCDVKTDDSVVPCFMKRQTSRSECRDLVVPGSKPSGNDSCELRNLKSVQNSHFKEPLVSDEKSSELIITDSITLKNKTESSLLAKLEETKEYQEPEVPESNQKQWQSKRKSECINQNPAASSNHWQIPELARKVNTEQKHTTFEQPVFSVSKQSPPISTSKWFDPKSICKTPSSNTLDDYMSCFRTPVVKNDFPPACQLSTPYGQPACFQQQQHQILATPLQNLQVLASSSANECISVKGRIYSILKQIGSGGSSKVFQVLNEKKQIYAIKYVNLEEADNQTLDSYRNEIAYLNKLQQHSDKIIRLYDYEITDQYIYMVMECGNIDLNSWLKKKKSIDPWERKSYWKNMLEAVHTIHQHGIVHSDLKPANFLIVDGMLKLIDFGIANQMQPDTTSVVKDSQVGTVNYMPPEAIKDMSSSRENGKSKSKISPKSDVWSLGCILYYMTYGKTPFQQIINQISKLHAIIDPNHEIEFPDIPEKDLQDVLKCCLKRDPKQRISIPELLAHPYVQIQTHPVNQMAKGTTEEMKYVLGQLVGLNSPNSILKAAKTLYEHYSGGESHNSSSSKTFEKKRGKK
# Method: as §1
# [11] = molecular target: T11, PLK1 (Homo sapiens, UniProt P53350)
# T11 construct: lines 1-140) and Reaction Biology
# Method: as §1
# [12] = molecular target: T12, MAP4K3 (Homo sapiens, UniProt Q8IVH8)
# T12 construct: lines 1-140) and Reaction Biology
# T12 sequence (Q8IVH8 1-894): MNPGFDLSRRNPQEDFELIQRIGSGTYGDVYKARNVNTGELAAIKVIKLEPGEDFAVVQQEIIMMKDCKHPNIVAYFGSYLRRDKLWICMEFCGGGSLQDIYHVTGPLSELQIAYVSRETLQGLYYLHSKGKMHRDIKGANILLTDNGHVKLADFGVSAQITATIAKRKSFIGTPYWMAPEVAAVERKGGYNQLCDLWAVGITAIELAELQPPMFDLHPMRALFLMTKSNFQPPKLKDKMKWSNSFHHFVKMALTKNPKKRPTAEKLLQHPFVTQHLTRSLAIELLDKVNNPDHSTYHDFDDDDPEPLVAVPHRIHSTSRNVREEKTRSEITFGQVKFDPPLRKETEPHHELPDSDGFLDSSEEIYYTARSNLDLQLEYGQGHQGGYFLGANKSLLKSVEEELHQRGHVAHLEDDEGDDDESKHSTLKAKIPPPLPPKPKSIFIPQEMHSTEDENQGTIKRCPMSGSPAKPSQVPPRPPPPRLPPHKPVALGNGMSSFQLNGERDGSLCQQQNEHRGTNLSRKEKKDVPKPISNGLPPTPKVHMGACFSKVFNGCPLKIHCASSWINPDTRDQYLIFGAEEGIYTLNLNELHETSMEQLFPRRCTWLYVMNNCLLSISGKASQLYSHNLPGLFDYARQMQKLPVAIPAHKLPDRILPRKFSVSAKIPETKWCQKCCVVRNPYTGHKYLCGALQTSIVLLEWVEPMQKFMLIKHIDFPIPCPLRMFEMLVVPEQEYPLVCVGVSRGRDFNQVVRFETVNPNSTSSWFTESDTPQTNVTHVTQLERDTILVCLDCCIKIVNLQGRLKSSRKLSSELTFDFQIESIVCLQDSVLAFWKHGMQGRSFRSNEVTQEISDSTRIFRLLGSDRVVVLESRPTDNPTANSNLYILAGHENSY
# Method: as §1
# [13] = molecular target: T13, MELK (Homo sapiens, UniProt Q14680)
# T13 construct: lines 1-140) and Reaction Biology
# Method: as §1
# T13 sequence (Q14680 whole entry): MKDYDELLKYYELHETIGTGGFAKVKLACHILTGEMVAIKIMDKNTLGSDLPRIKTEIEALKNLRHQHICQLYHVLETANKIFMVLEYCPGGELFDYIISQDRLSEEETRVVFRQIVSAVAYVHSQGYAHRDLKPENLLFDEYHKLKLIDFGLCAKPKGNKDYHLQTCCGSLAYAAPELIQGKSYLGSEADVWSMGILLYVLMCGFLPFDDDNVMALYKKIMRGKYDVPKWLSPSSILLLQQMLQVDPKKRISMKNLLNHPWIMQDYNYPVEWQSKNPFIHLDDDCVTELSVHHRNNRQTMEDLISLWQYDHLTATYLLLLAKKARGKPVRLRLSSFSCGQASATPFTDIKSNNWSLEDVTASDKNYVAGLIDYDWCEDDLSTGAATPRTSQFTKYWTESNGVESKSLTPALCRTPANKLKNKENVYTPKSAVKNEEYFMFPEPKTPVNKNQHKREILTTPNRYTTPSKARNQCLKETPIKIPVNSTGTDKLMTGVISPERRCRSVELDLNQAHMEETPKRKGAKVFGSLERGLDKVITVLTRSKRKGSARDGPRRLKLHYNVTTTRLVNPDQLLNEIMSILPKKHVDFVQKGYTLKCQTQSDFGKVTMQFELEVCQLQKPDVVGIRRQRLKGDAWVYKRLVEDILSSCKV
# T11 sequence (P53350 whole entry): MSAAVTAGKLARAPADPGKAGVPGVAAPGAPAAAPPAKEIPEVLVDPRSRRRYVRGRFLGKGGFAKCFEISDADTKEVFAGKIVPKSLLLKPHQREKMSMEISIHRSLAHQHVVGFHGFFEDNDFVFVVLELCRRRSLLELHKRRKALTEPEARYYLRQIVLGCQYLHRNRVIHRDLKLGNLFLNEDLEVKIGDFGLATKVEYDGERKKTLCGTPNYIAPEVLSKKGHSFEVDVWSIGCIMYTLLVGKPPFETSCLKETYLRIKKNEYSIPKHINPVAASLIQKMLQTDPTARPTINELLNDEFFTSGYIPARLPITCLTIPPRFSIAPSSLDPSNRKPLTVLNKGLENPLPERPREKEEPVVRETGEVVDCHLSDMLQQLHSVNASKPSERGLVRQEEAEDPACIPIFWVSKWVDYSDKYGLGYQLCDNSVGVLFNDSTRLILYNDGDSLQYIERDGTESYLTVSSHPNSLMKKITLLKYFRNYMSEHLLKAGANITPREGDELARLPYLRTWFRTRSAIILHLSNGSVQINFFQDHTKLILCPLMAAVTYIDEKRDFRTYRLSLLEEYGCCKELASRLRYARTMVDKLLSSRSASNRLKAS
# T3 sequence (Q86Z02 whole entry): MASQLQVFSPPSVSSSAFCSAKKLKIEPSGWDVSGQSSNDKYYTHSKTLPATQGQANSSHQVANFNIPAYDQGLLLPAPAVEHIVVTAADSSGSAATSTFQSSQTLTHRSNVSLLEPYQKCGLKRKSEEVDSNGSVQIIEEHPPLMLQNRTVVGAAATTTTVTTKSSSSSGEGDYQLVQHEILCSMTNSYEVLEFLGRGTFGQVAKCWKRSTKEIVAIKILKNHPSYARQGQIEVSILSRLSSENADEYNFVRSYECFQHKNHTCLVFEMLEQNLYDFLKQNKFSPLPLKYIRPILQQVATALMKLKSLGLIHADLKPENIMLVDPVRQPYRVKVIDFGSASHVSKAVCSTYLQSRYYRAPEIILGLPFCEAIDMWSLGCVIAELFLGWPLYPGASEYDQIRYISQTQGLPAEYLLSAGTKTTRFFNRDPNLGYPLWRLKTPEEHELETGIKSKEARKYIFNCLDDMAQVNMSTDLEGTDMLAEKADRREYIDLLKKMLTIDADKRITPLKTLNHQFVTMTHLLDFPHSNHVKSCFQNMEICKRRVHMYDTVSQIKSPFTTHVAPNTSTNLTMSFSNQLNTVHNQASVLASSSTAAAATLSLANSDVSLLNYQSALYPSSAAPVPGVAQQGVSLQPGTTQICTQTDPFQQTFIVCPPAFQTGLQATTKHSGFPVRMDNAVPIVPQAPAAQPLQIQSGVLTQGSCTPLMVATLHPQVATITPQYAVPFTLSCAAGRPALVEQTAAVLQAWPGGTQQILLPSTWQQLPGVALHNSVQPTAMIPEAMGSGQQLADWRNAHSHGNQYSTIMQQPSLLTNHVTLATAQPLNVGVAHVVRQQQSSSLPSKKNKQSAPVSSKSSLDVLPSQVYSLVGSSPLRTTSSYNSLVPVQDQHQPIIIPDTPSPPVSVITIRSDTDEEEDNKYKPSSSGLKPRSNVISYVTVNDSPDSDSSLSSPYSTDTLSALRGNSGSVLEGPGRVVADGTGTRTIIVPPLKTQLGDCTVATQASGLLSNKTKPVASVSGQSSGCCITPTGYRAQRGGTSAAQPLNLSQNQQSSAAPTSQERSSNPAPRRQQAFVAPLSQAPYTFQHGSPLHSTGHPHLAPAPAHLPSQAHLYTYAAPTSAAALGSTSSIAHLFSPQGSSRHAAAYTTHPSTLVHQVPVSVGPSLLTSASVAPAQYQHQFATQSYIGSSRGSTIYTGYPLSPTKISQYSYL
# T4 sequence (Q9P289 whole entry): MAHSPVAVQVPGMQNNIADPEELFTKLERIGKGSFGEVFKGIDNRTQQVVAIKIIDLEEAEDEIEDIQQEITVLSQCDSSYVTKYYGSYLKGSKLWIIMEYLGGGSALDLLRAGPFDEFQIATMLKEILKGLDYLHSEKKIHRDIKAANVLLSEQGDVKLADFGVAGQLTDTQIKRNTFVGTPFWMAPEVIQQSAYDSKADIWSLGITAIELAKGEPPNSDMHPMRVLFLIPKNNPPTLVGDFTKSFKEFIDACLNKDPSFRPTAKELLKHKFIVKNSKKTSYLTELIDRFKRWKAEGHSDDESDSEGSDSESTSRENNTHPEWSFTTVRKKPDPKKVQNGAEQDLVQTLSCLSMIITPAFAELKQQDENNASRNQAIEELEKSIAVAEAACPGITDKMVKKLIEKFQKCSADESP
# T9 sequence (Q96GD4 whole entry): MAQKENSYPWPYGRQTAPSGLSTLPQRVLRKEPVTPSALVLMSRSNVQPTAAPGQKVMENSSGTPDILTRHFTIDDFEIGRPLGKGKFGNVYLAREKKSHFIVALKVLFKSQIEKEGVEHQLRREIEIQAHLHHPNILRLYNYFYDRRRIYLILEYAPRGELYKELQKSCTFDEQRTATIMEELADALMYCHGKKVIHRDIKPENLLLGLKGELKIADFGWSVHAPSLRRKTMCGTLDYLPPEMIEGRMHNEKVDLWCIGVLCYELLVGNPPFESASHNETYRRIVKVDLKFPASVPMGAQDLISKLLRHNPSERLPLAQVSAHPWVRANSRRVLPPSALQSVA
# T6 sequence (O75116 whole entry): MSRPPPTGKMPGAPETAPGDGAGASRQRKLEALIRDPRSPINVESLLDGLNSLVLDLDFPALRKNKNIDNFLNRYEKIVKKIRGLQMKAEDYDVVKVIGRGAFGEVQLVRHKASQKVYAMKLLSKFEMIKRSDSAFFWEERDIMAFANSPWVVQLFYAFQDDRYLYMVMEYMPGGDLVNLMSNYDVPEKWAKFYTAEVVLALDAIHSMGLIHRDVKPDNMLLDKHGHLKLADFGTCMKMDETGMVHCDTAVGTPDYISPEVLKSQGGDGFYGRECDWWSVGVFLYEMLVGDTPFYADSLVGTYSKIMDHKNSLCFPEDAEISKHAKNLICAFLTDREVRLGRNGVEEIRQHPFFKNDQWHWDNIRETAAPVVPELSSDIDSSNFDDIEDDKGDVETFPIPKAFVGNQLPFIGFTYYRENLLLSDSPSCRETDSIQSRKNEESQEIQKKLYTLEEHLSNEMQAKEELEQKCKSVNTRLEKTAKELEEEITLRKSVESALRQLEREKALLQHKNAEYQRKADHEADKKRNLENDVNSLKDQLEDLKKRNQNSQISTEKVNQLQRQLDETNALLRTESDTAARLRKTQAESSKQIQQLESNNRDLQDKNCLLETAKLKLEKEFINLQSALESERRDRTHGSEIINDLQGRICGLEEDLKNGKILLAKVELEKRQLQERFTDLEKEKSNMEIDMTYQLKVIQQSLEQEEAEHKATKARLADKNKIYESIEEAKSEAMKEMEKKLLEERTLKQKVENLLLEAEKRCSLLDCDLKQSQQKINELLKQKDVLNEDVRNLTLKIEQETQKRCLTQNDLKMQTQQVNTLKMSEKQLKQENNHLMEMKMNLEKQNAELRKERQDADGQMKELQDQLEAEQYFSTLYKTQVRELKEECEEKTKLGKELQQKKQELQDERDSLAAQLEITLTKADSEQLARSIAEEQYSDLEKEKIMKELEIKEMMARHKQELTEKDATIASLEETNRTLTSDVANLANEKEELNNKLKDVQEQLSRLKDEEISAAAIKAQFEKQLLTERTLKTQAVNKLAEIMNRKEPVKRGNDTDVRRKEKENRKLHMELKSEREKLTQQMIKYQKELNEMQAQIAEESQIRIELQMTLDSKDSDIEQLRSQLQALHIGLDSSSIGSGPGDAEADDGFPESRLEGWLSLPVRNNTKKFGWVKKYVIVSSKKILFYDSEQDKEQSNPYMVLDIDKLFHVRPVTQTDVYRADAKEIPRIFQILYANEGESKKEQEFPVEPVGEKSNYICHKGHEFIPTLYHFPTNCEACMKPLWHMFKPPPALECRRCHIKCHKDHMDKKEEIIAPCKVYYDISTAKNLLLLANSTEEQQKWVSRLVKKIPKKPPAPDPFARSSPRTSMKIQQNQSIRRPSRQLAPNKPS
# T1 sequence (Q02750 whole entry): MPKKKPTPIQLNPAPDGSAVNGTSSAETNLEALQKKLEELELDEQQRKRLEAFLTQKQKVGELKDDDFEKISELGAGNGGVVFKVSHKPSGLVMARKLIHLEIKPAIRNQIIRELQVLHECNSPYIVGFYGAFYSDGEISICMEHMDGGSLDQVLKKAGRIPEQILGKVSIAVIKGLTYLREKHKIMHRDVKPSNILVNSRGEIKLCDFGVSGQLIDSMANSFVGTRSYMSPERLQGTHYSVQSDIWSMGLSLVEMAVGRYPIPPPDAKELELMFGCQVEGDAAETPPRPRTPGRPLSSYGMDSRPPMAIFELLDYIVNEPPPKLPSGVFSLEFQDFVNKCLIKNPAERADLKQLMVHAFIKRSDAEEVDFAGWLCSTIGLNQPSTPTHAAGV
SMILES,remaining activity at 1 µM [1] [%],remaining activity at 1 µM [2] [%],remaining activity at 1 µM [3] [%],remaining activity at 1 µM [4] [%],remaining activity at 1 µM [5] [%],remaining activity at 1 µM [6] [%],remaining activity at 1 µM [7] [%],remaining activity at 1 µM [8] [%],remaining activity at 1 µM [9] [%],remaining activity at 1 µM [10] [%],remaining activity at 1 µM [11] [%],remaining activity at 1 µM [12] [%],remaining activity at 1 µM [13] [%],also measured
O=C1Cc2c([nH]c3ccc(Br)cc23)-c2ccccc2N1 [Kenpaullone],97,104,102,74,100,62,95,100,46,97,99,14,38,–
O=C1Nc2ccc(I)cc2/C1=C/c1cc(Br)c(O)c(Br)c1 [GW5074],80,94,84,89,93,56,93,70,29,88,81,31,48,–
Nc1ncc(C(=O)NC2CN(C(=O)C3CC3)C2)c2ccc(-c3cccc(F)c3)nc12 [GNE-495],–,–,–,–,–,–,–,–,–,–,–,–,–,residual activity ([1]; 1 μM): 56%; residual activity ([2]; 1 μM): 28%; residual activity ([3]; 1 μM): 97%; residual activity ([4]; 1 μM): 117%; residual activity ([5]; 1 μM): 53%; residual activity ([6]; 1 μM): 82%; residual activity ([7]; 1 μM): 91%; residual activity ([8]; 1 μM): 63%; residual activity ([9]; 1 μM): 46%; residual activity ([10]; 1 μM): 87%; residual activity ([11]; 1 μM): 84%; residual activity ([12]; 1 μM): 7%; residual activity ([13]; 1 μM): 82%
"Oc1ncnc2c1c(-c1ccccc1)cn2-c1ccccc1 [F1386-0303, 5,7-diphenyl-7H-pyrrolo[2,3-d]pyrimidin-4-ol]",101,105,54,109,85,132,113,99,85,97,100,84,90,–
"COCCOc1ccc(-c2cn(-c3ccccc3)c3nc[nH]c(=O)c23)cc1 [DMX-5804, 5-[4-(2-methoxy-ethoxy)-phenyl]-7-phenyl-3,7-dihydro-pyrrolo[2,3-d]pyrimidin-4-one]",113,100,109,102,96,104,92,122,29,105,118,41,83,–
